Source: patent US8632982B2, “Biomarkers for liver injury” (Institute for Systems Biology, priority 2009, dated 2014)

System: C57BL6/J mice
Test: Murine model: liver damage induced with acetaminophen, serum markers by SPR antibody array and Western blot
Type: in vivo
Conditions: male C57BL6/J mice, 300 mg/kg intraperitoneally
Protocol: The effectiveness of various proteins as markers was tested by inducing liver damage in mice using acetaminophen and then assessing serum for various proteins by surface plasmon resonance (SPR) detection of complex formation with the relevant antibody and confirmed by Western blot. The known marker, AST, was used as a control.
Nine week old male C57BL6/J mice were fasted for 24 hours and then administered 300 mg/kg acetaminophen intraperitoneally. The mice were euthanized with CO2 and whole blood was collected via cardiac puncture at various time intervals. The whole blood was incubated at 4° C. for 12 hours and centrifuged at 2,000 g for 10 minutes to obtain serum which was stored at −80° C. and then analyzed by SPR antibody array as described above and validated by Western blot. (The concentration of the known marker serum […] (AST) was determined by enzymatic assay.)

CC(=O)Nc1ccc(O)cc1 [acetaminophen]
plasma levels of plasminogen and RBP4 (Western blot, FIG. 3) (12-24 hours): decrease
serum levels of control marker AST (enzymatic assay) (same time as the novel markers): corresponding increase
plasma level of the 12 markers whose level increases in the event of liver injury (Western blot, FIG. 3) (fasted 24 hours, after 12-24 hours, after which the levels declined): elevated levels
